Patent US9540391B2, “Isomannide derivatives as inhibitors of soluble epoxide hydrolase” (SANOFI, priority 2013, dated 2017)
Counter-ions that a name gives are not always drawn.

These compounds were tested against T1, recombinant sEH (Homo sapiens, UniProt P34913) (assay: biochemical screening assay for inhibition of soluble epoxide hydrolase (fluorometric, Phome substrate)).
T1 construct: made in house; host or cells: Sf9 insect cells
T1 sequence (P34913 1-555): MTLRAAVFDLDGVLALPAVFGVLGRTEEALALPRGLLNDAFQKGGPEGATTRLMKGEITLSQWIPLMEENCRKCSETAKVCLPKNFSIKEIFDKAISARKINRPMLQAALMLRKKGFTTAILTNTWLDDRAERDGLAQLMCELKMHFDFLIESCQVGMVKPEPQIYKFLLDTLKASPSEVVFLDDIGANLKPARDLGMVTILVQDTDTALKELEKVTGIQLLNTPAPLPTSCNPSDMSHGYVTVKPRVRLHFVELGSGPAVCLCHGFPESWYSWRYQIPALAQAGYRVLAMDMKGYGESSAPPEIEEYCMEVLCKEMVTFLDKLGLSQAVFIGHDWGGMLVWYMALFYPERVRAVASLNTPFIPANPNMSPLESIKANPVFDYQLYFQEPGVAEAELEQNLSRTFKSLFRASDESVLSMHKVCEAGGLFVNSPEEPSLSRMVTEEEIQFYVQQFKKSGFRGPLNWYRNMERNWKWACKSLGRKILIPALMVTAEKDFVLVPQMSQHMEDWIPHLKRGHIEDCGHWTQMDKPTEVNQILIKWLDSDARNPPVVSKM
Summary of the method: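 Reading fluorescence before substrate addition and after completion corrected for autofluorescence. Reaction: 5 μM Phome, 2 nM recombinant human sEH (Sf9-expressed), compound 0.0001–10 μM, 25 mM Hepes with 0.01% albumin, 15 min pre-incubation then 60 min at 30 °C; IC50 derived from % inhibition.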

SMILES | IC50 [nM]
C[C@H](NC(=O)N[C@H]1CO[C@H]2[C@@H]1OC[C@@H]2Oc1ccc(F)cc1)c1ccccc1 [Example 161, 1-[(3S,3aR,6S,6aS)-6-(4-Fluoro-phenoxy)-hexahydro-furo[3,2-b]furan-3-yl]-3-((S)-1-phenyl-ethyl)-urea] | 47
Cc1ncccc1O[C@H]1CO[C@H]2[C@@H]1OC[C@@H]2NC(=O)NC1CC(C)(C)CC(C)(C)C1 [Example 273, 1-[(3S,3aR,6S,6aS)-6-(2-Methyl-pyridin-3-yloxy)-hexahydro-furo[3,2-b]furan-3-yl]-3-(3,3,5,5-tetramethyl-cyclohexyl)-urea] | 1
N#Cc1ccc(S[C@H]2CO[C@H]3[C@@H]2OC[C@@H]3NC(=O)NC2CCCCC2)nc1 [Example 60, 1-[(3S,3aR,6S,6aS)-6-(5-Cyano-pyridin-2-ylsulfanyl)-hexahydro-furo[3,2-b]furan-3-yl]-3-cyclohexyl-urea] | 4
O=C(NC1CCCCC1)N[C@H]1CO[C@H]2[C@@H]1OC[C@@H]2Oc1cccc(C2CCNCC2)c1 [Example 108, 1-Cyclohexyl-3-[(3S,3aR,6S,6aS)-6-(3-piperidin-4-yl-phenoxy)-hexahydro-furo[3,2-b]furan-3-yl]-urea; trifluoroacetate] | 23
O=C(NC1CCCCC1)N[C@H]1CO[C@H]2[C@@H]1OC[C@@H]2Oc1ccccc1-c1ccccc1 [Example 23, 1-[(3S,3aR,6S,6aS)-6-(Biphenyl-2-yloxy)-hexahydro-furo[3,2-b]furan-3-yl]-3-cyclohexyl-urea] | 1
O=C(NC1CCCCC1)N[C@H]1CO[C@H]2[C@@H]1OC[C@@H]2/C=C\c1ccc2c(c1)OCO2 [Example 317, 1-[(3S,3aR,6S,6aR)-6-((Z)-2-Benzo[1,3]dioxol-5-yl-vinyl)-hexahydro-furo[3,2-b]furan-3-yl]-3-cyclohexyl-urea] | 3
Cc1ncccc1O[C@H]1CO[C@H]2[C@@H]1OC[C@@H]2NC(=O)NC1CC(=O)N(C(C)C)C1 (stereo partly drawn) [Example 246, 1-(1-Isopropyl-5-oxo-pyrrolidin-3-yl)-3-[(3S,3aR,6S,6aS)-6-(2-methyl-pyridin-3-yloxy)-hexahydro-furo[3,2-b]furan-3-yl]-urea] | 317
Cc1ncccc1O[C@H]1CO[C@H]2[C@@H]1OC[C@@H]2NC(=O)NC1CCC2(CC1)OCCO2 [Example 266, 1-(1,4-Dioxa-spiro[4.5]dec-8-yl)-3-[(3S,3aR,6S,6aS)-6-(2-methyl-pyridin-3-yloxy)-hexahydro-furo[3,2-b]furan-3-yl]-urea] | 16
O=C(Nc1ccc(OC(F)(F)F)cc1)N[C@H]1CO[C@H]2[C@@H]1OC[C@@H]2/C=C\c1ccccc1 [Example 332, 1-[(3S,3aR,6S,6aR)-6-((Z)-Styryl)-hexahydro-furo[3,2-b]furan-3-yl]-3-(4-trifluoromethoxy-phenyl)-urea] | 11
Cc1cccc(NC(=O)N[C@H]2CO[C@@H]3[C@@H]2OC[C@H]3C#Cc2ccccc2)c1 [Example 289, 1-[(3S,3aR,6R)-6-((S)-Phenylethynyl)-hexahydro-furo[3,2-b]furan-3-yl]-3-m-tolyl-urea] | 35
Cc1ncccc1O[C@H]1CO[C@H]2[C@@H]1OC[C@@H]2NC(=O)NC(C)c1ccc(S(C)(=O)=O)cc1 (stereo partly drawn) [Example 187, 1-[1-(4-Methanesulfonyl-phenyl)-ethyl]-3-[(3S,3aR,6S,6aS)-6-(2-methyl-pyridin-3-yloxy)-hexahydro-furo[3,2-b]furan-3-yl]-urea] | 44
CC(=O)Nc1ccc(O[C@H]2CO[C@H]3[C@@H]2OC[C@@H]3NC(=O)NC2CCCCC2)cc1 [Example 113, N-{4-[(3S,3aS,6S,6aR)-6-(3-Cyclohexyl-ureido)-hexahydro-furo[3,2-b]furan-3-yloxy]-phenyl}-acetamide] | 3
Cc1ncccc1O[C@H]1CO[C@H]2[C@@H]1OC[C@@H]2NC(=O)Nc1cc(C(C)(C)C)[nH]n1 [Example 215, 1-(5-tert-Butyl-1H-pyrazol-3-yl)-3-[(3S,3aR,6S,6aS)-6-(2-methyl-pyridin-3-yloxy)-hexahydro-furo[3,2-b]furan-3-yl]-urea] | 238
O=C(NC1CCCc2ccccc21)N[C@H]1CO[C@H]2[C@@H]1OC[C@@H]2Oc1ccc(F)cc1 (stereo partly drawn) [Example 158, 1-[(3S,3aR,6S,6aS)-6-(4-Fluoro-phenoxy)-hexahydro-furo[3,2-b]furan-3-yl]-3-(1,2,3,4-tetrahydro-naphthalen-1-yl)-urea] | 27
O=C(Nc1ccc2c(c1)OCO2)NC1COC2C(CCc3ccccc3)COC12 [Example 348, 1-Benzo[1,3]dioxol-5-yl-3-((3S,3aR,6S,-6aR)-6-phenethyl-hexahydro-furo[3,2-b]furan-3-yl)-urea] | 229
O=C(NC1CCCCC1)N[C@H]1CO[C@H]2[C@@H]1OC[C@@H]2Oc1ccccc1CN1CCOCC1 [Example 123, 1-Cyclohexyl-3-[(3S,3aR,6S,6aS)-6-(2-morpholin-4-ylmethyl-phenoxy)-hexahydro-furo[3,2-b]furan-3-yl]-urea; trifluoroacetate] | 4
O=C(NC1CCCCC1)N[C@H]1CO[C@H]2[C@@H]1OC[C@@H]2Oc1ccc2cc(Br)ccc2c1 [Example 99, 1-[(3S,3aR,6S,6aS)-6-(6-Bromo-naphthalen-2-yloxy)-hexahydro-furo-[3,2-b]furan-3-yl]-3-cyclohexyl-urea] | 12
CC(C)(C)c1ccc(O[C@H]2CO[C@H]3[C@@H]2OC[C@@H]3NC(=O)NC2CCCCC2)cc1 [Example 103, 1-[(3S,3aR,6S,6aS)-6-(4-tert-Butyl-phenoxy)-hexahydro-furo[3,2-b]furan-3-yl]-3-cyclohexyl-urea] | 7
O=C(NC1CCCCC1)N[C@H]1CO[C@H]2[C@@H]1OC[C@@H]2Oc1ccccc1F [Example 95, 1-Cyclohexyl-3-[(3S,3aR,6S,6aS)-6-(2-fluoro-phenoxy)-hexahydro-furo[3,2-b]furan-3-yl]-urea] | 5
CO[C@H]1COCC[C@H]1NC(=O)N[C@H]1CO[C@H]2[C@@H]1OC[C@@H]2Oc1cccnc1C [Example 93, (R)-1-((R)-3-methoxy-tetrahydro-pyran-4-yl)-3-[(3S,3aR,6S,6aS)-6-(2-methyl-pyridin-3-yloxy)-hexahydro-furo[3,2-b]furan-3-yl]-urea] | 32
N#CC1COC2C(NC(=O)Nc3ccc(OCc4ccccc4)cc3)COC12 (stereo not drawn) [Example 382] | 339
COC(=O)c1cncc(O[C@H]2CO[C@H]3[C@@H]2OC[C@@H]3NC(=O)NC2CCCCC2)c1 [Example 111, 5-[(3S,3aS,6S,6aR)-6-(3-Cyclohexyl-ureido)-hexahydro-furo[3,2-b]furan-3-yloxy]-nicotinic acid methyl ester] | 1
O=C(NC1CCC(F)(F)CC1)N[C@H]1CO[C@H]2[C@@H]1OC[C@@H]2Oc1ccc(F)cc1 [Example 77, 1-(4,4-difluoro-cyclohexyl)-3-[(3S,3aR,6S,6aS)-6-(4-fluoro-phenoxy)-hexahydro-furo[3,2-b]furan-3-yl]-urea] | 17
Cc1ncccc1O[C@H]1CO[C@H]2[C@@H]1OC[C@@H]2NC(=O)NC1CCCCC1C(C)(C)C (stereo partly drawn) [Example 271, 1-(2-tert-Butyl-cyclohexyl)-3-[(3S,3aR,6S,6aS)-6-(2-methyl-pyridin-3-yloxy)-hexahydro-furo[3,2-b]furan-3-yl]-urea] | 99
O=C(NC1CCc2ccccc21)NC1COC2C(Oc3ccc(F)cc3)COC12 [Example 150, 1-[(3S,3aR,6S,6aS)-6-(4-Fluoro-phenoxy)-hexahydro-furo[3,2-b]furan-3-yl]-3-(S)-indan-1-yl-urea] | 16
O=C(N[C@H]1CO[C@H]2[C@@H]1OC[C@@H]2Oc1ccc(F)cc1)N1CCC(F)(F)CC1 [Example 94, 4,4-difluoro-piperidine-1-carboxylic acid [(3S,3aR,6S,6aS)-6-(4-fluoro-phenoxy)-hexahydro-furo[3,2-b]furan-3-yl]-amide] | 2480
Cc1ncccc1O[C@H]1CO[C@H]2[C@@H]1OC[C@@H]2NC(=O)NC[C@@H]1C[C@@H]2C[C@H]([C@H]1C)C2(C)C [Example 213, 1-[(3S,3aR,6S,6aS)-6-(2-Methyl-pyridin-3-yloxy)-hexahydro-furo[3,2-b]furan-3-yl]-3-((1R,2R,3R,5S)-2,6,6-trimethyl-bicyclo[3.1.1]hept-3-ylmethyl)-urea] | 3
Cc1cc(C)cc(NC(=O)N[C@H]2CO[C@H]3[C@@H]2OC[C@@H]3C#Cc2ccsc2)c1 [Example 302, 1-(3,5-Dimethyl-phenyl)-3-((3S,3aR,6S,6aR)-6-thiophen-3-ylethynyl-hexahydro-furo[3,2-b]furan-3-yl)-urea] | 72
O=C(NC1CCCCC1)N[C@H]1CO[C@H]2[C@@H]1OC[C@@H]2Oc1ccccc1C(=O)N1CCCC1 [Example 110, 1-Cyclohexyl-3-{(3S,3aR,6S,6aS)-6-[2-(pyrrolidine-1-carbonyl)-phenoxy]-hexahydro-furo[3,2-b]furan-3-yl}-urea] | 140
O=C(NC1CCCCC1)N[C@H]1CO[C@H]2[C@@H]1OC[C@@H]2Oc1ccccn1 [Example 3, 1-cyclohexyl-3-[(3S,3aR,6S,6aS)-6-(pyridin-2-yloxy)-hexahydro-furo[3,2-b]furan-3-yl]-urea] | 12
